{"source": "patent US20100092559A1", "about": "(OsteoGeneX Inc., priority 2008, published 2010)", "key": {"[1]": {"tested_on": "mouse", "test": "micro-CT bone formation assay in mice for SOST antagonist candidates", "assay_type": "in vivo", "conditions": "test vs control solution, complete dosing schedule", "excerpt": "Compounds useful in the methods of the present invention can be identified via a variety of methods known to one of skill in the art. Several exemplary methods for identifying such antagonists are described herein, including cell-based and in vitro techniques (Journal of Bone and Mineral Research 2006, 21(11), 1738-1749). A general method of identifying SOST antagonists involves evaluating the effects of antagonist candidates on bone formation under controlled conditions. Preferably bone formation is determined using micro-CT techniques on live animals. Preferred animals include rodents, more preferred are primates. Femur, tibia and vertebrae bones are particularly useful subjects for such study.\nBriefly, the test animal is treated with a predetermined dose of a SOST antagonist candidate. […]\nOnce the dosing schedule has been completed, both test and control animals are examined to determine the quantity of bone formation present. […] Where necessary, levels of bone formation can be calculated by determining the volume of bone formation present in each animal. […]\nFor example, the mouse test animal is treated with a predetermined dose of a SOST antagonist candidate for a complete dosing schedule. […] Once the dosing schedule has been completed, both test and control animals are examined with sacrifice using micro-CT to determine the quantity of bone formation present."}, "[2]": {"tested_on": "C57BL/6 mice", "test": "Bone growth in four month old male C57BL/6 mice, daily i.p. for 30 days (uCT, histomorphometry, pQCT)", "assay_type": "in vivo, mouse", "description": "Study endpoints included measurement of trabecular lumbar vertebrae 5 (LVB5) by uCT, showing 65% increase in bone volume over baseline at 75 mg/kg (FIG. 2)."}, "[3]": {"tested_on": "Wnt pathway", "test": "Wnt pathway modulation to promote bone growth (FIG. 1)", "conditions": "doses of 2.5 ng (low), 60 ng (medium), 125 ng (high)"}}}
{"smiles": "COc1cc2c(cc1O)C[C@H]1c3c(cc(O)c(OC)c3-2)CCN1C", "note": "[(S)-boldine]", "values": [{"measurement": "bone growth (quantity of bone formation by micro-CT)", "setting": "[1]", "result": "promoting bone growth"}, {"measurement": "increase in BV/TV of femur over baseline controls, pQCT", "setting": "[2]; 60 mg/kg", "result": 8, "unit": "%"}, {"measurement": "increase in bone volume over baseline, trabecular lumbar vertebrae 5 (LVB5) by uCT", "setting": "[2]; 75 mg/kg i.p. daily for 30 days, male C57BL/6 mice, FIG. 2", "result": 65, "unit": "%"}, {"measurement": "increase in BV/TV in trabecular long bone over saline controls, histomorphometry", "setting": "[2]; all animals in both L (0.75 mg/kg) and H (75 mg/kg) groups, i.p. daily 30 days, p=0.05", "result": 78, "unit": "%"}, {"measurement": "modulating the Wnt pathway to promote bone growth", "setting": "[3]", "result": "modulating the Wnt pathway to promote bone growth"}]}
